Laboratory results: patent publication US20220281863A1, “COMPOUNDS, COMPOSITIONS AND METHODS OF TREATING DISORDERS” (Reverie Labs, Inc., priority 2019, published 2022)

Target: T1, CDK9/CycTI (Homo sapiens, UniProt P50750)
T1 construct: purchased Carna biosciences 04-110
Assay: In vitro kinase assay (ADP-Glo Kinase Assay Kit), CDK9/CycTI
Type: biochemical
Conditions: 30 ng CDK9/CycTI, 30 μM CDKtide, 10 μM ATP, 2 hours at room temperature; 8 to 10-point dose response (Tier2); read-out: IC50 Score
Protocol: In vitro kinase assay was performed in white, 384-low volume plates in 5 μl reaction volume consisting of 30 ng CDK9/CycTI (Carna biosciences #04-110), 30 μM CDKtide (Signalchem #C06-58) and 10 μM ATP made in reaction buffer (40 mM Tris, pH 7.5; 20 mM MgCl2; 0.1 mg/ml BSA; 50 μM DTT) at 1 μM & 10 μM compound concentration for Tier1 assay and 8 to 10-point dose response curve for Tier2 assay. After 2 hours of incubation at room temperature, the amounts of […] in the kinase reaction were quantified using ADP-Glo™ Kinase Assay Kit (Promega #V9102). Briefly, 5 μl of ADP-Glo™ reagent was added to stop the kinase reaction and plate was incubated for 40 minutes at room temperature. Subsequently, 10 μl of Kinase Detection Reagent was added and luminescence was recorded after 30 minutes of incubation at room temperature.
The inhibition of kinase activity was determined relative to positive control (2% DMSO) and IC50 was calculated using GraphPad prism software (four parameter-variable slope equation).

T1 sequence (P50750 whole entry): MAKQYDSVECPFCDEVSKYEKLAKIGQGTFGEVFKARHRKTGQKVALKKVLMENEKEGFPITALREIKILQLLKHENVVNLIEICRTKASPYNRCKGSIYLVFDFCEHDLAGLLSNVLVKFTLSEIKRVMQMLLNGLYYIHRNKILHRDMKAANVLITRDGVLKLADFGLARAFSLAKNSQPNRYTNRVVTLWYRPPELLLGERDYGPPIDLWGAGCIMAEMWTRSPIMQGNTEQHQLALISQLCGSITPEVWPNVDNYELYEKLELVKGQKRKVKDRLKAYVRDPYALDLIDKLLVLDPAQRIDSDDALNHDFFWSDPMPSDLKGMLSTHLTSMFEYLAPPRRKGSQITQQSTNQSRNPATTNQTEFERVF
T1 sequence (O60563 whole entry partner): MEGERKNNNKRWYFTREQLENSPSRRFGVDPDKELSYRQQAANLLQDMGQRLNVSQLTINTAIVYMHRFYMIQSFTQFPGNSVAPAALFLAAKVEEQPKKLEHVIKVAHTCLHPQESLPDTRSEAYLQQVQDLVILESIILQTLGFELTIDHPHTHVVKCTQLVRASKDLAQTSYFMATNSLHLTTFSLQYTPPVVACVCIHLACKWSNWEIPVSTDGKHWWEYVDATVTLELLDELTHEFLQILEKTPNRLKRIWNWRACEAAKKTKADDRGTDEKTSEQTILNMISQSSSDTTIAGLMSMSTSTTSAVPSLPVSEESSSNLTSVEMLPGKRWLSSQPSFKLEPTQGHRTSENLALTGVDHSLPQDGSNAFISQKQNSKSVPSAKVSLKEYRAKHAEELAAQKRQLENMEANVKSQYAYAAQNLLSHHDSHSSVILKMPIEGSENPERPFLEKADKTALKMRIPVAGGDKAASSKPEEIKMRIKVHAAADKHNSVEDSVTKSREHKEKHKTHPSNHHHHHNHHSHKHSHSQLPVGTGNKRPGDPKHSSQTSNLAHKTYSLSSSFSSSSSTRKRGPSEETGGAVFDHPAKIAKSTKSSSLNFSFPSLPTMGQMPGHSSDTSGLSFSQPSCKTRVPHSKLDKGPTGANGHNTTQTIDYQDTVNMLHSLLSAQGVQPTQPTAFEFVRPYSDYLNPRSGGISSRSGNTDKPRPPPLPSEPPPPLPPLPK

An IC50 of 100 to 500 nM was found for `CC(=O)N1CC(C(=O)Nc2nc3ccc4cc(F)ccc4c3s2)C1` [Compound 28, 1-acetyl-N-(7-fluoronaphtho[2,1-d]thiazol-2-yl)azetidine-3-carboxamide] in this work.
An IC50 of 1000 to 20000 nM was found for `CN1CC(C(=O)Nc2nc3ccc4cc(F)ccc4c3s2)C1` [Compound 29] in this work.
An IC50 of 100 to 500 nM was found for `CC(C)(C)OC(=O)N[C@H]1CCC[C@@H](C(=O)Nc2nc3ccc4cc(F)ccc4c3s2)C1` [Compound 30, Tert-butyl ((1S,3R)-3-((7-fluoronaphtho[2,1-d]thiazol-2-yl)carbamoyl)cyclohexyl) carbamate] in this work.
An IC50 of 100 to 500 nM was found for `O=C(Nc1nc2ccc3cc(F)ccc3c2s1)[C@H]1CCNC1` [Compound 31, (S)—N-(7-fluoronaphtho[2,1-d]thiazol-2-yl)pyrrolidine-3-carboxamide] in this work.
An IC50 of 100 to 500 nM was found for `C=CC(=O)N[C@H]1CCC[C@@H](C(=O)Nc2nc3ccc4cc(F)ccc4c3s2)C1` [Compound 33, (1R,3S)-3-acrylamido-N-(7-fluoronaphtho[2,1-d]thiazol-2-yl)cyclohexane-1-carboxamide] in this work.
An IC50 of 100 to 500 nM was found for `CC(C)(C)OC(=O)N[C@@H]1CC[C@H](C(=O)Nc2nc3ccc4cc(F)ccc4c3s2)C1` [Compound 34] in this work.
An IC50 of 1000 to 20000 nM was found for `CC(C)(C)OC(=O)N1CC[C@@H]1C(=O)Nc1nc2ccc3cc(F)ccc3c2s1` [Compound 35, Tert-butyl (R)-2-((7-fluoronaphtho[2,1-d]thiazol-2-yl)carbamoyl)azetidine-1-carboxylate] in this work.
An IC50 of 100 to 500 nM was found for `CC(=O)N1CCC[C@@H](C(=O)Nc2nc3ccc4cc(F)ccc4c3s2)C1` [Compound 38, 1-acetyl-N-(7-fluoronaphtho[2,1-d]thiazol-2-yl)piperidine-3-carboxamide] in this work.
An IC50 of 1 to 100 nM was found for `CN(C)[C@@H]1CC[C@H](C(=O)Nc2nc3ccc4cc(F)ccc4c3s2)C1` [Compound 39] in this work.
An IC50 of 1000 to 20000 nM was found for `CC(C)(C)OC(=O)N1CCC(C(=O)Nc2nc3ccc4cc(F)ccc4c3s2)CC1` [Compound 40] in this work.
An IC50 of 1 to 100 nM was found for `C=CC(=O)N[C@@H]1CCC[C@H](C(=O)Nc2nc3ccc4cc(F)ccc4c3s2)C1` [Compound 41, (1S,3R)-3-acrylamido-N-(7-fluoronaphtho[2,1-d]thiazol-2-yl)cyclohexane-1-carboxamide] in this work.
An IC50 of 100 to 500 nM was found for `O=C(Nc1nc2ccc3cc(F)ccc3c2s1)[C@H]1CCOC1` [Compound 42] in this work.
An IC50 of 100 to 500 nM was found for `O=C(Nc1nc2ccc3cc(F)ccc3c2s1)C1CCNCC1` [Compound 43] in this work.
An IC50 of 1 to 100 nM was found for `C=CC(=O)N1CCC[C@@H]1C(=O)Nc1nc2ccc3cc(F)ccc3c2s1` [Compound 44, (R)-1-acryloyl-N-(7-fluoronaphtho[2,1-d]thiazol-2-yl)pyrrolidine-2-carboxamide] in this work.
An IC50 of 1 to 100 nM was found for `CC(=O)N1CCC[C@H](C(=O)Nc2nc3ccc4cc(F)ccc4c3s2)C1` [Compound 45, (S)-1-acetyl-N-(7-fluoronaphtho[2,1-d]thiazol-2-yl)piperidine-3-carboxamide] in this work.
An IC50 of 500 to 1000 nM was found for `CC(C)(C)OC(=O)N[C@H]1CCC[C@H](C(=O)Nc2nc3ccc4cc(F)ccc4c3s2)C1` [Compound 46] in this work.
An IC50 of 500 to 1000 nM was found for `O=C(Nc1nc2ccc3cc(F)ccc3c2s1)[C@@H]1CCCN1` [Compound 47, (S)—N-(7-fluoronaphtho[2,1-d]thiazol-2-yl)pyrrolidine-2-carboxamide] in this work.
An IC50 of 1000 to 20000 nM was found for `O=C(Nc1nc2ccc3cc(F)ccc3c2s1)c1ccno1` [Compound 49, N-(7-fluoronaphtho[2,1-d]thiazol-2-yl)isoxazole-5-carboxamide] in this work.
An IC50 of 1000 to 20000 nM was found for `O=C(Nc1nc2ccc3cc(F)ccc3c2s1)c1cn[nH]c1` [Compound 50, N-(7-fluoronaphtho[2,1-d]thiazol-2-yl)-1H-pyrazole-4-carboxamide] in this work.
An IC50 of 1 to 100 nM was found for `CC(=O)N1CC[C@H](C(=O)Nc2nc3ccc4cc(F)ccc4c3s2)C1` [Compound 52, (S)-1-acetyl-N-(7-fluoronaphtho[2,1-d]thiazol-2-yl)pyrrolidine-3-carboxamide] in this work.
An IC50 of 1000 to 20000 nM was found for `O=C(Nc1nc2ccc3cc(F)ccc3c2s1)c1c[nH]cn1` [Compound 53, N-(7-fluoronaphtho[2,1-d]thiazol-2-yl)-1H-imidazole-4-carboxamide] in this work.
An IC50 of 1 to 100 nM was found for `O=C(Nc1nc2ccc3cc(F)ccc3c2s1)[C@H]1CC[C@@H](N2CCOCC2)C1` [Compound 57, (1S,3R)—N-(7-fluoronaphtho[2,1-d]thiazol-2-yl)-3-morpholinocyclopentane-1-carboxamide] in this work.
An IC50 of 100 to 500 nM was found for `O=C(Nc1nc2ccc3cc(F)ccc3c2s1)C1CNC1` [Compound 58, N-(7-fluoronaphtho[2,1-d]thiazol-2-yl)azetidine-3-carboxamide] in this work.
An IC50 of 500 to 1000 nM was found for `CC(C)(C)OC(=O)N1CC[C@H](C(=O)Nc2nc3ccc4cc(F)ccc4c3s2)C1` [Compound 59, Tert-butyl (S)-3-((7-fluoronaphtho[2,1-d]thiazol-2-yl)carbamoyl)pyrrolidine-1-carboxylate] in this work.
An IC50 of 1 to 100 nM was found for `O=C(Nc1nc2ccc3cc(F)ccc3c2s1)[C@@H]1CCOC1` [Compound 60, (R)—N-(7-fluoronaphtho[2,1-d]thiazol-2-yl)tetrahydrofuran-3-carboxamide] in this work.
An IC50 of 1000 to 20000 nM was found for `CC(C)(C)OC(=O)N1CCC[C@H](C(=O)Nc2nc3ccc4cc(F)ccc4c3s2)C1` [Compound 62, tert-butyl (S)-3-((7-fluoronaphtho[2,1-d]thiazol-2-yl)carbamoyl)piperidine-1-carboxylate] in this work.
An IC50 of 100 to 500 nM was found for `N[C@H]1CCC[C@@H](C(=O)Nc2nc3ccc4cc(F)ccc4c3s2)C1` [Compound 63, (1R,3S)-3-amino-N-(7-fluoronaphtho[2,1-d]thiazol-2-yl)cyclohexane-1-carboxamide] in this work.
An IC50 of 500 to 1000 nM was found for `CC(C)(C)C(=O)N1CCC(C(=O)Nc2nc3ccc4cc(F)ccc4c3s2)CC1` [Compound 64] in this work.
An IC50 of 100 to 500 nM was found for `CN1CCC(C(=O)Nc2nc3ccc4cc(F)ccc4c3s2)C1` (stereo not shown) [Compound 65, N-(7-fluoronaphtho[2,1-d]thiazol-2-yl)-1-methylpyrrolidine-3-carboxamide] in this work.
An IC50 of 500 to 1000 nM was found for `O=C(Nc1nc2ccc3cc(F)ccc3c2s1)[C@@H]1CCCCN1` [Compound 68] in this work.
An IC50 of 1 to 100 nM was found for `CC(=O)N1CC[C@@H]1C(=O)Nc1nc2ccc3cc(F)ccc3c2s1` [Compound 69, (R)-1-acetyl-N-(7-fluoronaphtho[2,1-d]thiazol-2-yl)azetidine-2-carboxamide] in this work.
An IC50 of 1 to 100 nM was found for `CC(=O)N(C)[C@@H]1CC[C@H](C(=O)Nc2nc3ccc4cc(F)ccc4c3s2)C1` [Compound 71, (1S,3R)—N-(7-fluoronaphtho[2,1-d]thiazol-2-yl)-3-(N-methylacetamido)cyclopentane-1-carboxamide] in this work.
An IC50 of 1000 to 20000 nM was found for `CC(=O)N1CC[C@H]1C(=O)Nc1nc2ccc3cc(F)ccc3c2s1` [Compound 73, (S)-1-acetyl-N-(7-fluoronaphtho[2,1-d]thiazol-2-yl)azetidine-2-carboxamide] in this work.
An IC50 of 500 to 1000 nM was found for `O=C(Nc1nc2ccc3cc(F)ccc3c2s1)[C@H]1CCCN1` [Compound 74] in this work.
An IC50 of 1 to 100 nM was found for `O=C(CCl)N[C@@H]1CCC[C@H](C(=O)Nc2nc3ccc4cc(F)ccc4c3s2)C1` [Compound 75] in this work.
An IC50 of 1000 to 20000 nM was found for `O=C(Nc1nc2ccc3cc(F)ccc3c2s1)[C@@H]1CCNC1` [Compound 77] in this work.
An IC50 of 100 to 500 nM was found for `O=C(Nc1nc2ccc3cc(F)ccc3c2s1)[C@@H]1CCCO1` [Compound 78, (S)—N-(7-fluoronaphtho[2,1-d]thiazol-2-yl)tetrahydrofuran-2-carboxamide] in this work.
An IC50 of 1 to 100 nM was found for `CC(=O)N[C@H]1CCC[C@@H](C(=O)Nc2nc3ccc4cc(F)ccc4c3s2)C1` [Compound 79, (1R,3S)-3-acetamido-N-(7-fluoronaphtho[2,1-d]thiazol-2-yl)cyclohexane-1-carboxamide] in this work.
An IC50 of 1000 to 20000 nM was found for `O=C(Nc1nc2ccc3cc(F)ccc3c2s1)c1nncs1` [Compound 80] in this work.
An IC50 of 500 to 1000 nM was found for `CC(=O)N[C@@H]1CCC[C@@H](C(=O)Nc2nc3ccc4cc(F)ccc4c3s2)C1` [Compound 81] in this work.
An IC50 of 1000 to 20000 nM was found for `CC(C)(C)OC(=O)N1CC[C@H]1C(=O)Nc1nc2ccc3cc(F)ccc3c2s1` [Compound 84, Tert-butyl (S)-2-((7-fluoronaphtho[2,1-d]thiazol-2-yl)carbamoyl)azetidine-1-carboxylate] in this work.
An IC50 of 100 to 500 nM was found for `O=C(Nc1nc2ccc3cc(F)ccc3c2s1)[C@@H]1CCN1` [Compound 85, (S)—N-(7-fluoronaphtho[2,1-d]thiazol-2-yl)azetidine-2-carboxamide] in this work.
An IC50 of 1 to 100 nM was found for `CC(=O)N1CCC(C(=O)Nc2nc3ccc4cc(F)ccc4c3s2)CC1` [Compound 86] in this work.
An IC50 of 1 to 100 nM was found for `CN[C@@H]1CC[C@H](C(=O)Nc2nc3ccc4cc(F)ccc4c3s2)C1` [Compound 87, (1S,3R)—N-(7-fluoronaphtho[2,1-d]thiazol-2-yl)-3-(methylamino)cyclopentane-1-carboxamide] in this work.
An IC50 of 1000 to 20000 nM was found for `CC(C)(C)OC(=O)N1CC[C@@H](C(=O)Nc2nc3ccc4cc(F)ccc4c3s2)C1` [Compound 89] in this work.
An IC50 of 500 to 1000 nM was found for `O=C(Nc1nc2ccc3cc(F)ccc3c2s1)[C@H]1CCN1` [Compound 90, (R)—N-(7-fluoronaphtho[2,1-d]thiazol-2-yl)azetidine-2-carboxamide] in this work.
